Patent US6506766B1 (Abbott Laboratories, priority 1998, dated 2003)

Legend:
[1] = biological target: T1, human progesterone receptor-A [PRA] isoform (Homo sapiens, UniProt P06401); assay: Radioligand binding with human progesterone receptor cytosol ([3H]-progesterone competition); details: PRA cytosol expressed in insect SF21 cells, [3H]Prog ~0.8 nM, 4° C. overnight; Ki by Cheng-Prusoff, KL ~4.5 nM; read-out: Ki (nM) PR
T1 construct: host or cells: insect SF21 cells (baculovirus)
T1 sequence (P06401 1-769 isoform P06401-2): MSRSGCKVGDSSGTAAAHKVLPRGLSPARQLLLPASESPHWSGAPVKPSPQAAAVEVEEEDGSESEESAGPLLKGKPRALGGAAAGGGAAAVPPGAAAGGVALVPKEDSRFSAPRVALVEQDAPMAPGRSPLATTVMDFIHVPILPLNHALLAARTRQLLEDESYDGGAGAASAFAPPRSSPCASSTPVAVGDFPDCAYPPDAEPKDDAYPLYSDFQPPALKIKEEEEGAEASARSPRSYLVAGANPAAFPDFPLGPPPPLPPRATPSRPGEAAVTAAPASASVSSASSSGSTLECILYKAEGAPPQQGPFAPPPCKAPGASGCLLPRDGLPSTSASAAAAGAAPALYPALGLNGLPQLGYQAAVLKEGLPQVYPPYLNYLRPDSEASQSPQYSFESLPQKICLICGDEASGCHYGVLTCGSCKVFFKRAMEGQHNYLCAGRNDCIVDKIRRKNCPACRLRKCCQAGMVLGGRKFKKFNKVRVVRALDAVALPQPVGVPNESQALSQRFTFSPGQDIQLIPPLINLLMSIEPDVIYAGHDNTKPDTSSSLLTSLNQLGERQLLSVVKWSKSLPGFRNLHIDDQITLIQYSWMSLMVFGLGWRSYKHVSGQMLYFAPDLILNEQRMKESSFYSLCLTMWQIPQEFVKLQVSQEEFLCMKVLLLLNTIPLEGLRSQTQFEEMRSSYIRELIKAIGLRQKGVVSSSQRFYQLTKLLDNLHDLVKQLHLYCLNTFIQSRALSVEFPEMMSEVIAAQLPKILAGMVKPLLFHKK

[2] = biological target: T2, human glucocorticoid receptor-α [GRX] isoform (Homo sapiens, UniProt P04150); assay: Radioligand binding with human glucocorticoid receptor cytosol ([3H]-dexamethasone competition); details: GRX cytosol expressed in insect SF21 cells, [3H]-Dex ~0.9 nM, 4° C. overnight; Ki by Cheng-Prusoff, KL ~[…]; read-out: Ki (nM) GR
T2 construct: host or cells: insect SF21 cells (baculovirus)
T2 sequence (P04150 1-777): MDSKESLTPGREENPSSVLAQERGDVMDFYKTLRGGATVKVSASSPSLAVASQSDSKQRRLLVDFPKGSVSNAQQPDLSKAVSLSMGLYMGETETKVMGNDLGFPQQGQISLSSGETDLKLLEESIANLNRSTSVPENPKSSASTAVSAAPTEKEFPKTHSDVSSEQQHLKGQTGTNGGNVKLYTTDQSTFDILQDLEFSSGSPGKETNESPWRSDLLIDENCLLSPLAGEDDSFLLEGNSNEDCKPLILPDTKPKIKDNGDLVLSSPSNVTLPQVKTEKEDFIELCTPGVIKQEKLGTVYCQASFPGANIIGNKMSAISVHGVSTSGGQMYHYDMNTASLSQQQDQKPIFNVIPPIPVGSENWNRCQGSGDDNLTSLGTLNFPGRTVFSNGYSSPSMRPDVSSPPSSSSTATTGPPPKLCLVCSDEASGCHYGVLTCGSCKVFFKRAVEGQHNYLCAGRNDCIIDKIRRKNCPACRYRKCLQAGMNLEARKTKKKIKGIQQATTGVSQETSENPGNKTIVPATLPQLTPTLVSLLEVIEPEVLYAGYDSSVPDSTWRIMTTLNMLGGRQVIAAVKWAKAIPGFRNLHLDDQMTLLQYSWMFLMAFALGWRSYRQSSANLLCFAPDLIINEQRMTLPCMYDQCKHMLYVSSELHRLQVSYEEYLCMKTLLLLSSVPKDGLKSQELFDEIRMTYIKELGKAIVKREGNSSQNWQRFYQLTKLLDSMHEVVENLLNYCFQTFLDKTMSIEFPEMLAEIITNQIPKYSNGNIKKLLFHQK

For CC1=CC(C)(C)Nc2ccc3c(c21)C(c1cc(C)cc(C)c1)Oc1ccc(O)c(Cl)c1-3 (centres unmarked) [Example 219, 10-Chloro-9-hydroxy-5-(3,5-dimethylphenyl)-2,2,4-trimethyl-1H-2,5-dihydro-[1]benzopyrano[3,4-f]quinoline], the Ki [1] was 178 nM and the Ki [2] was 2.4 nM.
CC1=CC(C)(C)Nc2ccc3c(c21)[C@H]([C@H]1C=CCC1)Oc1ccc(O)c(Cl)c1-3 [Example 222, (−)2,5(S)-Dihydro-9-hydroxy-10-chloro-2,2,4-trimethyl-5-(3R-cyclopentenyl)-1H-[1]benzopyrano[3,4-f]quinoline] gave a Ki [1] of 9.9 nM and a Ki [2] of 0.47 nM.
CC1=CC(C)(C)Nc2ccc3c(c21)C(c1cc(Cl)cc(Cl)c1)Oc1ccc(O)c(Cl)c1-3 (centres unmarked) [Example 223, 10-Chloro-9-hydroxy-5-(3,5-dichlorophenyl)-2,2,4-trimethyl-1H-2,5-dihydro-[1]benzopyrano[3,4-f]quinoline] showed a Ki [1] of 297 nM and a Ki [2] of 2.6 nM.
CC1=CC(C)(C)Nc2ccc3c(c21)[C@@H]([C@@H]1C=CCC1)Oc1ccc(O)c(Cl)c1-3 [Example 224] showed a Ki [1] of 786 nM and a Ki [2] of 57 nM.
Compound CC1=CC(C)(C)Nc2ccc3c(c21)[C@@H]([C@H]1C=CCC1)Oc1ccc(O)c(Cl)c1-3 [Example 225] has a Ki [1] of 5010 nM and a Ki [2] of 155 nM.
CC1=CC(C)(C)Nc2ccc3c(c21)C(c1ccc(F)c(F)c1)Oc1ccc(O)c(Cl)c1-3 (centres unmarked) [Example 226, 10-Chloro-9-hydroxy-5-(3,4-difluorophenyl)-2,2,4-trimethyl-1H-2,5-dihydro-[1]benzopyrano[3,4-f]quinoline] was tested, and the Ki [1] was 220 nM and the Ki [2] was 2.6 nM.
C=CCC1Oc2ccc(Cl)c(C=C)c2-c2ccc3c(c21)C(C)=CC(C)(C)N3 (centres unmarked) [Example 228, 5-(3-Propenyl)-9-chloro-10-ethenyl-2,2,4-trimethyl-2,5-dihydro-1H-[1]benzopyrano[3,4-f]quinoline] gave a Ki [1] of 29.5 nM and a Ki [2] of 5.4 nM.
With COc1c(Cl)ccc2c1-c1ccc3c(c1C(c1ccccc1)O2)C(C)=CC(C)(C)N3 (centres unmarked) [Example 229, 9-Chloro-10-methoxy-5-phenyl-2,2,4-trimethyl-2,5-dihydro-1H[1]benzopyrano[3,4-f]quinoline] the Ki [1] was 1340 nM and the Ki [2] was 34.7 nM.
Compound C=CCC1Oc2ccc(Cl)c(OC(F)F)c2-c2ccc3c(c21)C(C)=CC(C)(C)N3 (centres unmarked) [Example 230, 5-(3-Propenyl)-9-chloro-10-difluoromethoxy-2,2,4-trimethyl-2,5-dihydro-1H-[1]benzopyrano[3,4-f]quinoline] has a Ki [1] of 50.3 nM and a Ki [2] of 2.4 nM.
Compound CC1=CC(C)(C)Nc2ccc3c(c21)C(c1ccccc1)Oc1ccc(Cl)c(OC(F)F)c1-3 (centres unmarked) [Example 231, 9-Chloro-10-difluoromethoxy-5-phenyl-2,2,4-trimethyl-2,5-dihydro-1H-[1]benzopyrano[3 4-f]quinoline] has a Ki [1] of 1870 nM and a Ki [2] of 30.2 nM.
For COc1cc(F)cc2c1-c1ccc3c(c1C(c1ccccc1)O2)C(C)=CC(C)(C)N3 (centres unmarked) [Example 232, 8-Fluoro-10-methoxy-5-phenyl-2,2,4-trimethyl-2,5-dihydro-1H-[1]benzopyrano[3,4-f]quinoline], the Ki [1] was 230 nM and the Ki [2] was 1.6 nM.
For C=CCC1Oc2cc(F)cc(OC)c2-c2ccc3c(c21)C(C)=CC(C)(C)N3 (centres unmarked) [Example 233, 5-(3-Propenyl)-8-fluoro-10-methoxy-2,2,4-trimethyl-2,5-dihydro-1H-[1]benzopyrano[3,4-f]quinoline], the Ki [1] was 350 nM and the Ki [2] was 2.5 nM.
With C=CCC1Oc2ccc(O)c(OC)c2-c2ccc3c(c21)C(C)=CC(C)(C)N3 (centres unmarked) [Example 235, 10-Methoxy-9-hydroxy-5-(3-propenyl)-2,2,4-trimethyl-1H-2,5-dihydro-[1]benzopyrano[3,4-f]quinoline] the Ki [1] was 155 nM and the Ki [2] was 0.94 nM.
For COc1c(O)ccc2c1-c1ccc3c(c1[C@@H]([C@@H]1C=C(C)CCC1)O2)C(C)=CC(C)(C)N3 [Example 240, (+)(5R,3′S)-9-Hydroxy-5-[1-methyl-3-cyclohexenyl]-10-methoxy-2,2,4-trimethyl-2,5-dihydro-1H-[1]benzopyrano[3,4-f]quinoline], the Ki [1] was 2170 nM and the Ki [2] was 52.2 nM.
With COc1c(O)ccc2c1-c1ccc3c(c1[C@H]([C@@H]1C=CCCCC1)O2)C(C)=CC(C)(C)N3 [Example 246, (−)(5S,3′S)2,5-Dihydro-9-hydroxy-10-methoxy-2,2,4-trimethyl-5-(3-cycloheptenyl)-1H-[1]benzopyrano[3,4-f]quinoline] the Ki [1] was 113 nM and the Ki [2] was 0.87 nM.
With COc1c(O)ccc2c1-c1ccc3c(c1[C@H]([C@H]1C=CCCCC1)O2)C(C)=CC(C)(C)N3 [Example 247, (−)(5S,3′R)2,5-Dihydro-9-hydroxy-10-methoxy-2,2,4-trimethyl-5-(3-cycloheptenyl)-1H-[1]benzopyrano[3,4-f]quinoline] the Ki [1] was 195 nM and the Ki [2] was 0.86 nM.
With COc1c(O)ccc2c1-c1ccc3c(c1C(c1ccccc1)O2)C(C)=CC(C)(C)N3 (centres unmarked) [Example 248, 2,5-Dihydro-9-hydroxy-10-methoxy-2,2,4-trimethyl-5-phenyl-1H-[1]benzopyrano[3,4-f]quinoline] the Ki [1] was 870 nM and the Ki [2] was 1 nM.
COc1c(O)ccc2c1-c1ccc3c(c1C(c1cc(F)cc(F)c1)O2)C(C)=CC(C)(C)N3 (centres unmarked) [Example 249, 2,5-Dihydro-9-hydroxy-10-methoxy-2,2,4-trimethyl-5-(3,5-difluorophenyl)-1H-[1]benzopyrano[3,4-f]quinoline] was tested, and the Ki [1] was 488 nM and the Ki [2] was 0.8 nM.
COc1c(O)ccc2c1-c1ccc3c(c1C(c1cc(F)c(F)c(F)c1)O2)C(C)=CC(C)(C)N3 (centres unmarked) [Example 250, 2,5-Dihydro-9-hydroxy-10-methoxy-2,2,4-trimethyl-5-(3,4,5-trifluorophenyl)-1H-[1]benzopyrano[3,4-f]quinoline] was tested, and the Ki [1] was 1470 nM and the Ki [2] was 2.4 nM.
Compound COc1c(O)ccc2c1-c1ccc3c(c1[C@H]([C@@H]1C=CCC1)O2)C(C)=CC(C)(C)N3 [Example 252] has a Ki [1] of 102 nM and a Ki [2] of 0.39 nM.
Compound COc1c(O)ccc2c1-c1ccc3c(c1[C@H]([C@H]1C=CCC1)O2)C(C)=CC(C)(C)N3 [Example 253, (−)(5S,3′R)2,5-Dihydro-9-hydroxy-10-methoxy-2,2,4-trimethyl-5-(3-cyclopentenyl)-1H-[1]benzopyrano[3,4-f]quinoline] has a Ki [1] of 42 nM and a Ki [2] of 0.38 nM.
In the case of COc1c(O)ccc2c1-c1ccc3c(c1C(c1ccc(F)cc1)O2)C(C)=CC(C)(C)N3 (centres unmarked) [Example 255, 2,5-Dihydro-9-hydroxy-10-methoxy-2,2,4-trimethyl-5-(4-fluorophenyl)-1H-[1]benzopyrano[3,4-f]quinoline], the Ki [1] is reported as 1430 nM and the Ki [2] is reported as 1.5 nM.
COc1c(O)ccc2c1-c1ccc3c(c1C(c1cccc(C(F)(F)F)c1)O2)C(C)=CC(C)(C)N3 (centres unmarked) [Example 256, 2,5-Dihydro-9-hydroxy-10-methoxy-2,2,4-trimethyl-5-(3-trifluoromethylphenyl)-1H-[1]benzopyrano[3,4-f]quinoline] gave a Ki [1] of 266 nM and a Ki [2] of 3.8 nM.
With COc1c(O)ccc2c1-c1ccc3c(c1C(c1cc(C(F)(F)F)cc(C(F)(F)F)c1)O2)C(C)=CC(C)(C)N3 (centres unmarked) [Example 257, 2,5-Dihydro-9-hydroxy-10-methoxy-2,2,4-trimethyl-5-(3-5-bistrifluoromethylphenyl)-1H-[1]benzopyrano[3,4-f]quinoline] the Ki [1] was 1620 nM and the Ki [2] was 10 nM.
COc1c(O)ccc2c1-c1ccc3c(c1C(c1ccc(Cl)c(C(F)(F)F)c1)O2)C(C)=CC(C)(C)N3 (centres unmarked) [Example 258, 2,5-Dihydro-9-hydroxy-10-methoxy-2,2,4-trimethyl-5-(3-trifluoromethyl-4-chlorophenyl)-1H-[1]benzopyrano[3,4-f]quinoline] was tested, and the Ki [1] was 879 nM and the Ki [2] was 10.7 nM.
